Laboratory results taken from patent US9334272B2, “Derivatives of purinic and pyrimidinic antiviral agents and use thereof as potent anticancer agents” (Ramot at Tel-Aviv University Ltd., priority 2007, dated 2016).

What was measured:
[1] = system: 22RV1 cells; test: Hoechst viability assay, 22RV1 prostate carcinoma cells; type: cell-based, human
Experimental: (§1) Cells (in quadruplicate) at the specified density were suspended in 200 μL medium supplemented with 10% FCS seeded in 96-well plates for 24 hours, then exposed to the drugs for 72 hours. The viability of the cells was determined by Hoechst fluorescent assay as described by Nudelman et al., 2005. Leukemic cell viability after 72 hours of treatment was determined by an MTT (3-(4,5-dimethylthiazol-2-yl)-2,5-diphenyltetrazolium bromide) assay as described by Levovich et al., 2007.
(§2) IC50 values were determined by linear regression of the percentage of survival following drug titration.

[2] = system: MCF-7 cells; test: Hoechst viability assay, MCF-7 breast carcinoma cells; type: cell-based, human
Experimental: as §1, §2

[3] = system: U-251 cells; test: Apoptosis/cell death by annexin V-FITC and propidium iodide FACS, U-251 cells; type: cell-based
Experimental: Cells were seeded in six-well plates (10^5 cells/well) for 24 hours and were then treated as specified, trypsinized, washed with PBS, double-stained with annexin V-FITC (fluorescein isothiocyanate) and propidium iodide, according to the manufacturer's instructions and subjected to flow cytometry analysis (FACScalibur cytometer, Becton Dickinson).

[4] = system: U-251 cells; test: Mitochondrial membrane potential (JC-1 staining), U-251 cells; type: cell-based, human; conditions: 60 μM, 24 hour treatment
[5] = system: phospho-H2AX (Ser139); test: Phospho-H2AX Western blot, U-251 cells; type: cell-based, human; conditions: 60 μM, 0.5, 2 or 24 hours, peak after 2 hours
Experimental: (§3) Cell lysates or acid extracted histones were solubilized in a concentrated (×4) loading buffer (62.5 mM Tris-HCl, pH 6.8, 1% SDS, 10% glycerol v/v, 1% dithiothreitol (DTT) and 0.1 mg/ml bromophenol blue). Proteins (10-40 μg) were run on SDS-PAGE, transferred to a nitrocellulose membrane (Schleicher & Schuell, Germany) and probed with the primary antibodies, followed by incubation with a horseradish peroxidase (HRP)-goat anti-rabbit IgG or HRP-rabbit anti-mouse IgG as secondary antibodies. HRP bound to the secondary antibodies was visualized by the enhanced chemiluminescence method using the Western Blotting Luminol reagent (Santa Cruz, Calif., USA). The membrane was exposed for 5 minutes to Chemiluminescence BioMax light film (Kodak, USA) and the intensity of the bands was measured with a VersaDoc instrument with a Quantityl program (Bio-Rad, USA). The fold increase of each specific protein was determined by the ratio of band intensities of treated and untreated cells, normalized to loading control (actin or total histone H3).

[6] = target: T1, proteasome (Homo sapiens, UniProt P28074); test: Proteasome activity assay, U-251 cells; type: cell-based; conditions: U-251, 50 μM
T1 construct: proteasome activity in U-251 cells treated for 4 or 24 hours; endogenous in cells; host or cells: U-251 cells (lysates of treated cells)
T1 sequence (P28074 60-263): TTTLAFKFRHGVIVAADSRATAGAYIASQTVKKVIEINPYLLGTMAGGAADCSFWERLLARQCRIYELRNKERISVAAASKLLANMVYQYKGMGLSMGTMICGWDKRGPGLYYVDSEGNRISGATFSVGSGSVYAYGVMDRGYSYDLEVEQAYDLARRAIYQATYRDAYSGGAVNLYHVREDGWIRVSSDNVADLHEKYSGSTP
Experimental: The peptidase or chymotrypsin-like activity of the proteasome was assayed using N-succinyl-Leu-Leu-Val-Tyr-7-amido-4-methylcoumarin. The lysates (100 μL) were incubated with 13 (M of the substrate in 100 mM Tris, pH 7.5, for 1 hour with shaking at room temperature. The reaction was stopped by addition of ice-cold ethanol, and the samples were centrifuged for 5 minutes at 2500 g. The supernatants were collected and the fluorescence was measured with excitation/emission filters of 390/460 nm using the FluoStar fluorimeter. The protein concentration was determined using a BCATM kit (Pierce) and the proteasome activity was derived from the ratio of fluorescence at 460 nm/(g of protein. The percentage of proteasome activity was calculated relative to untreated cells.

[7] = system: p21; test: p21 Western blot, U-251 cells; type: cell-based, human; conditions: compared with Compound 12 and acyclovir
Experimental: as §3

[8] = system: acetylated histone H4; test: Histone H4 acetylation Western blot, U-251 cells; type: cell-based, human; conditions: 2-4 hours of treatment
Experimental: (§4) For the determination of in vitro histone acetylation, 2.5-3×10^6 cells, seeded in 100 mm culture dishes, were supplemented with RPMI medium containing 10% heat inactivated FCS and were treated with the drugs the following day. At the specified times post-treatment, the cells were removed with a rubber policeman, centrifuged, washed, lysed with lysis buffer (PBS, Nonidet® NP-40 1%, sodium deoxycholate 0.5%, sodium dodecyl sulfate (SDS) 0.1%, 1 mM phenylmethylsulfonyl fluoride (PMSF), 1 mM sodium orthovanadate, and 1 μM each of leupeptin and pepstatin) and centrifuged at 10,000 g for 10 minutes at 4° C. […] The extract was then lyophilized, and protein concentration was determined with a BCA kit (Pierce, USA). […] The fold increase of acetylated histones was determined by the ratio of band intensities of treated and untreated cells or mice, normalized to loading control (total histone H3).
(§5) Cell lysates or acid extracted histones were solubilized in a concentrated (×4) loading buffer (62.5 mM Tris-HCl, pH 6.8, 1% SDS, 10% glycerol v/v, 1% dithiothreitol (DTT) and 0.1 mg/ml bromophenol blue). […] The membrane was exposed for 5 minutes to Chemiluminescence BioMax light film (Kodak, USA) and the intensity of the bands was measured with a VersaDoc instrument with a Quantityl program (Bio-Rad, USA). […]

[9] = system: rat primary cardiomyocytes; test: ROS production (DCF-DA) in rat primary cardiomyocytes; type: cell-based
Experimental: Neonatal rat ventricular cardiomyocytes were isolated and cultured in collagen coated culture dishes as described by Shalitin et al., 1996. Growth medium contained DMEM:Ham's F12 (1:1), fetal calf serum (10%) and antibiotics. Treatment was administered to spontaneously beating cardiomyocytes 48 hours after plating.

[10] = Acute toxicity assay in mice; type: in vivo; conditions: male, mouse, in vivo; single per os dose, ICR mice
Source text: (§6) Male ICR mice, 8 weeks old (Harlan, Israel) were acclimated for 10 days before administration of the tested compounds. The animals were monitored for two weeks and weighed three times per week.

[11] = system: ICR mice; test: Acute toxicity assay in mice; type: in vivo; conditions: 2 weeks
Source text: as §6

[12] = system: acetylated histone H4; test: In vivo histone H4 acetylation in 4T1 tumors (Western blot); parameters: species or system mice; conditions: 100 mg/kg each, 4 hours after treatment, vs vehicle
Experimental: as §4, §5

CCCC(CCC)C(=O)Nc1nc2c(ncn2COCCOC(=O)C(CCC)CCC)c(=O)[nH]1 [Compound 6, N-valproyl-9-(2-valproyloxy)ethoxymethylguanine]
activity relative to acyclovir [1]: > 100 fold
IC50 ([1]; Homo sapiens, 72 hours, Hoechst, read-out: IC50): 23.2 ± 1.9 µM
effect of N-acetylcysteine (NAC) on the activity of the compound ([2]; 400 μM NAC, FIG. 3b): did not reduce the activity
IC50 fold lower than that of VA ([2]; MCF-7 cells, Hoechst): over 20 fold
IC50 fold lower than that of the mixture of VA and acyclovir ([2]; MCF-7 cells, Hoechst, acyclovir:VA 1:2): over 50 fold
mortality at 50 µM ([3]; Homo sapiens, U-251 glioblastoma cells, 50 μM, 24 hours (untreated 9%)): 29%
percentage of apoptotic cells ([3]; U-251 cells, 24 hours): increased the percentage of apoptotic cells in a dose dependent manner
mitochondrial membrane potential [4]: increased the number of mitochondria with reduced membrane potentials
level of phosphorylated H2AX [5]: induced an increase in the level of phosphorylated H2AX
inhibition at 50 µM ([6]; after 4 hours): > 50%
inhibition at 50 µM ([6]; after 24 hours): > 75%
expression of p21 [7]: induces expression of the cyclin dependent kinase inhibitor p21 more quickly and to a greater extent
acetylation of histone H4 [8]: induced acetylation of H4
production of reactive oxygen radicals (ROS) ([9]; 4 hours): did not increase production of reactive oxygen radicals
effect on ROS production induced by Dox ([9]; combined with 2 μM Dox): prevented the formation of ROS
LD50 at 2 weeks [10]: > 750 mg/kg
Survival (%) ([11]; single per os dose 150 mg/kg): 100%
Survival (%) ([11]; single per os dose 200 mg/kg): 100%
Survival (%) ([11]; single per os dose 250 mg/kg): 91.8%
Survival (%) ([11]; single per os dose 500 mg/kg): 100%
Survival (%) ([11]; single per os dose 750 mg/kg): 100%
levels of acetylated H4 in tumors [12]: significantly higher levels of acetylated H4
